From ChEMBL document CHEMBL5108047 (J Med Chem, 2022)

Tests used:
[1] = molecular target: T1, DNA polymerase subunit gamma-1 (Homo sapiens, UniProt P54098); test: Inhibition of human DNA polymerase gamma
T1 sequence (P54098 whole entry): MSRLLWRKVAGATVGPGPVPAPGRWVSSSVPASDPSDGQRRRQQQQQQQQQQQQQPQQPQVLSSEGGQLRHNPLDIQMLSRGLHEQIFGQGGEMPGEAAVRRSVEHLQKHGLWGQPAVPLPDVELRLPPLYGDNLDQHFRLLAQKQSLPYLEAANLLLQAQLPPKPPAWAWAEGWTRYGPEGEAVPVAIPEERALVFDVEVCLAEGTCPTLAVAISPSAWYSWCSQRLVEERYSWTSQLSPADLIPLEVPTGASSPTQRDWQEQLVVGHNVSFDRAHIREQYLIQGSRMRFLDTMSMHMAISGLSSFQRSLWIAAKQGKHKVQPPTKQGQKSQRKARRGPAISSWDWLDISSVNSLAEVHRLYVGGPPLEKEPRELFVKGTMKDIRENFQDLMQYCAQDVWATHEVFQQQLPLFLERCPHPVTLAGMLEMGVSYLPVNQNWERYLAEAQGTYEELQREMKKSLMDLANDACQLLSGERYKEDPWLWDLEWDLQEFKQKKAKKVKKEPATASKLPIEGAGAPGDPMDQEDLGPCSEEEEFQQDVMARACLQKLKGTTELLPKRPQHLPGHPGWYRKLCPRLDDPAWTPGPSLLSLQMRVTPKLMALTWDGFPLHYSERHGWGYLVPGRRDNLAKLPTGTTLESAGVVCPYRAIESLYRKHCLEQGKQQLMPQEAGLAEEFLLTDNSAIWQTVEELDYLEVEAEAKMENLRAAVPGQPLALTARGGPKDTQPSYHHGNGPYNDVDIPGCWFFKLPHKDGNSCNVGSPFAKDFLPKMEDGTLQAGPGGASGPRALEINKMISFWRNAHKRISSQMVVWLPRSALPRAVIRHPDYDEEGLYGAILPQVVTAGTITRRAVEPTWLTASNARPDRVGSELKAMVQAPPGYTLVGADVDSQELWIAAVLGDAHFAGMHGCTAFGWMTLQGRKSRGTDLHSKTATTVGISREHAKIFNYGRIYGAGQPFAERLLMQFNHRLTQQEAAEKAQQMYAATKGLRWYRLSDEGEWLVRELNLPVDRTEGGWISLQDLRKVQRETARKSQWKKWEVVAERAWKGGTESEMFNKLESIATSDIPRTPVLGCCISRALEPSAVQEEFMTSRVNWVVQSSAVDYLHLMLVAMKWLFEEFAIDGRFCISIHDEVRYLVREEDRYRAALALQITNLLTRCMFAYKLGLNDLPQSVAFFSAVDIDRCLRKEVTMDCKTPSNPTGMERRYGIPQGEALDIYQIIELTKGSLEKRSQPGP

[2] = Toxicity in CD-1 mouse xenografted with BRCA2 knock in human HCT-116 cells assessed as drug tolerance at 80 mg/kg, po administered twice a day for 21 days; type: organism-based; details: in vivo, 504 h, time 21 day

Nc1ccc(C#CCN(C(=O)Cc2ncc(C(F)(F)F)cc2C(F)(F)F)c2ccc(F)cc2)nn1
IC50 [1]: > 100 µM | Activity [2]: Non-Toxic
